The text below walks through data of PubChem BioAssay AID252 (DTP/NCI, 2004).

The test deals with BDF1 mice, intracerebral L1210 leukemia, survival T/C. Briefly: NCI In Vivo Anticancer Drug Screen. Data for tumor model L1210 Leukemia (intracerebral) in B6D2F1 (BDF1) mice. The note with it: higher = longer survival. Put shortly:
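Readout is the T/C ratio: survival of compound-treated animals over that of vehicle-treated controls, in mice bearing transplantable tumour.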

[1] abbreviates: endpoint: mean survival time, dose: 1.0 mg/kg/injection, schedule: Q01DX009 (ip), vehicle: saline.
The mark [2] stands for this setting: endpoint: mean survival time, dose: 2.0 mg/kg/injection, schedule: Q01DX009 (ip), vehicle: saline.
Setting [3] is: endpoint: mean survival time, dose: 18.0 mg/kg/injection, schedule: Q01DX001 (ip), vehicle: carboxymethylcellulose (CMC).

Each structure is given as a SMILES string. Values joined by “and” are separate entries in the source; they are usually repeats but may differ in a detail not shown here. Equal entries are not always repeated. Toxic doses and inconclusive results are not listed.

For `COc1cccc2c1C(=O)c1c(O)c3c(c(O)c1C2=O)C[C@@](O)(C(=O)CO)C[C@@H]3OC1CC(N)C(O)C(C)O1` (some centres not stated), the T/C was 106 % of control (endpoint: mean survival time, dose: 0.05 mg/kg/injection, schedule: Q03HX024 (ip), vehicle: saline); 103 % of control (endpoint: mean survival time, dose: 0.1 mg/kg/injection, schedule: Q03HX024 (ip), vehicle: saline); 100 % of control (endpoint: mean survival time, dose: 0.2 mg/kg/injection, schedule: Q03HX024 (ip), vehicle: saline); 102 % of control (endpoint: mean survival time, dose: 0.4 mg/kg/injection, schedule: Q03HX024 (ip), vehicle: saline); 104 % of control (endpoint: mean survival time, dose: 0.5 mg/kg/injection, schedule: Q01DX005 (ip), vehicle: saline); 101 % of control (endpoint: mean survival time, dose: 0.5 mg/kg/injection, schedule: Q01DX009 (ip), vehicle: saline). Also, the T/C is, setting by setting: (endpoint: mean survival time, dose: 0.5 mg/kg/injection, schedule: Q04DX003 (ip), vehicle: saline) 105 % of control; (endpoint: mean survival time, dose: 0.8 mg/kg/injection, schedule: Q03HX024 (ip), vehicle: saline) 101 % of control; (endpoint: mean survival time, dose: 1.0 mg/kg/injection, schedule: Q01DX005 (ip), vehicle: saline) 104 % of control; under setting [1], 102 % of control; (endpoint: mean survival time, dose: 1.0 mg/kg/injection, schedule: Q04DX003 (ip), vehicle: saline) 102 % of control; (endpoint: mean survival time, dose: 2.0 mg/kg/injection, schedule: Q01DX005 (ip), vehicle: saline) 107 % of control. Besides, the T/C is 101 % of control under setting [2]; 101 % of control (endpoint: mean survival time, dose: 2.0 mg/kg/injection, schedule: Q04DX003 (ip), vehicle: saline); 106 % of control (endpoint: mean survival time, dose: 4.0 mg/kg/injection, schedule: Q01DX005 (ip), vehicle: saline); 108 % of control (endpoint: mean survival time, dose: 4.0 mg/kg/injection, schedule: Q04DX003 (ip), vehicle: saline); 100 % of control (endpoint: mean survival time, dose: 8.0 mg/kg/injection, schedule: Q04DX003 (ip), vehicle: saline).

Turning to `Cc1ncc(CNC(=O)N(CCCl)N=O)c(N)n1`, the T/C by setting is: (endpoint: mean survival time, dose: 6.25 mg/kg/injection, schedule: Q01DX001 (ip), vehicle: saline) 104 % of control; (endpoint: mean survival time, dose: 6.25 mg/kg/injection, schedule: Q01DX009 (ip), vehicle: saline) 158 % of control; (endpoint: mean survival time, dose: 12.5 mg/kg/injection, schedule: Q01DX009 (ip), vehicle: saline) 160 % of control; (endpoint: mean survival time, dose: 25.0 mg/kg/injection, schedule: Q01DX001 (ip), vehicle: saline) 153 % of control; (endpoint: mean survival time, dose: 50.0 mg/kg/injection, schedule: Q01DX001 (ip), vehicle: saline) 153 % of control; (endpoint: mean survival time, dose: 100.0 mg/kg/injection, schedule: Q01DX001 (ip), vehicle: saline) 104 % of control.

For `COc1cc(NS(C)(=O)=O)ccc1Nc1c2ccc([N+](=O)[O-])cc2nc2c(C)cccc12`, the T/C (endpoint: mean survival time, dose: 2.5 mg/kg/injection, schedule: Q01DX009 (ip), vehicle: saline) is 93 % of control; the T/C (endpoint: mean survival time, dose: 2.5 mg/kg/injection, schedule: Q01DX009 (sc), vehicle: saline) is 93 % of control; the T/C (endpoint: mean survival time, dose: 5.0 mg/kg/injection, schedule: Q01DX009 (ip), vehicle: saline) is 103 % of control; the T/C (endpoint: mean survival time, dose: 5.0 mg/kg/injection, schedule: Q01DX009 (sc), vehicle: saline) was 96 % of control; the T/C (endpoint: mean survival time, dose: 10.0 mg/kg/injection, schedule: Q01DX009 (sc), vehicle: saline) is 93 % of control.

Consider `CC(C)(Cc1ccccc1)NC(=O)N(CCCl)N=O`, for which the T/C reads like this: (endpoint: mean survival time, dose: 375.0 mg/kg/injection, schedule: Q01DX001 (ip), vehicle: other) 122 % of control; (endpoint: mean survival time, dose: 500.0 mg/kg/injection, schedule: Q01DX001 (ip), vehicle: other) 114 % of control.

For the compound `CCOCCN1CCN(CCCN2c3ccccc3Sc3ccc(C(F)(F)F)cc32)CC1`, the T/C is 106 % of control (endpoint: mean survival time, dose: 0.78 mg/kg/injection, schedule: Q01DX009 (ip), vehicle: water); 103 % of control (endpoint: mean survival time, dose: 1.56 mg/kg/injection, schedule: Q01DX009 (ip), vehicle: water); 106 % of control (endpoint: mean survival time, dose: 25.0 mg/kg/injection, schedule: Q04DX003 (ip), vehicle: water).

In the case of `S=C=NCCc1ccccc1`, the T/C reads like this: (endpoint: mean survival time, dose: 12.5 mg/kg/injection, schedule: Q01DX009 (ip), vehicle: saline with Tween-80) 343 % of control; (endpoint: mean survival time, dose: 25.0 mg/kg/injection, schedule: Q01DX009 (ip), vehicle: saline with Tween-80) 93 % of control; (endpoint: mean survival time, dose: 50.0 mg/kg/injection, schedule: Q01DX009 (ip), vehicle: saline with Tween-80) 95 % of control.

For the compound `O=NN(CCCl)C(=O)N[C@H]1CCCC[C@H]1Cl`, the T/C by setting is: (endpoint: mean survival time, dose: 8.0 mg/kg/injection, schedule: Q01DX001 (ip), vehicle: carboxymethylcellulose (CMC)) 103 % of control; (endpoint: mean survival time, dose: 12.0 mg/kg/injection, schedule: Q01DX001 (ip), vehicle: carboxymethylcellulose (CMC)) 106 % of control and 110 % of control and 90 % of control; under setting [3], 106 % of control; (endpoint: mean survival time, dose: 40.0 mg/kg/injection, schedule: Q01DX001 (ip), vehicle: carboxymethylcellulose (CMC)) 117 % of control; (endpoint: mean survival time, dose: 51.0 mg/kg/injection, schedule: Q01DX001 (ip), vehicle: carboxymethylcellulose (CMC)) 281 % of control and 306 % of control; (endpoint: mean survival time, dose: 54.0 mg/kg/injection, schedule: Q01DX001 (ip), vehicle: carboxymethylcellulose (CMC)) 198 % of control. Further, the T/C by setting is: (endpoint: mean survival time, dose: 62.0 mg/kg/injection, schedule: Q01DX001 (ip), vehicle: carboxymethylcellulose (CMC)) 159 % of control and 165 % of control and 176 % of control; (endpoint: mean survival time, dose: 72.0 mg/kg/injection, schedule: Q01DX001 (ip), vehicle: carboxymethylcellulose (CMC)) 251 % of control; (endpoint: mean survival time, dose: 90.0 mg/kg/injection, schedule: Q01DX001 (ip), vehicle: carboxymethylcellulose (CMC)) 209 % of control and 221 % of control and 270 % of control; (endpoint: mean survival time, dose: 101.0 mg/kg/injection, schedule: Q01DX001 (ip), vehicle: carboxymethylcellulose (CMC)) 413 % of control and 550 % of control; (endpoint: mean survival time, dose: 108.0 mg/kg/injection, schedule: Q01DX001 (ip), vehicle: carboxymethylcellulose (CMC)) 307 % of control; (endpoint: mean survival time, dose: 135.0 mg/kg/injection, schedule: Q01DX001 (ip), vehicle: carboxymethylcellulose (CMC)) 278 % of control and 305 % of control. The T/C (endpoint: mean survival time, dose: 203.0 mg/kg/injection, schedule: Q01DX001 (ip), vehicle: carboxymethylcellulose (CMC)) is 119 % of control and 94 % of control.

In the case of `O=NN(CCCl)C(=O)NC1CSCSC1`, the T/C (endpoint: mean survival time, dose: 2.0 mg/kg/injection, schedule: Q01DX001 (ip), vehicle: other) is 103 % of control and 98 % of control; the T/C (endpoint: mean survival time, dose: 15.0 mg/kg/injection, schedule: Q01DX001 (ip), vehicle: other) is 153 % of control and 196 % of control; the T/C (endpoint: mean survival time, dose: 22.0 mg/kg/injection, schedule: Q01DX001 (ip), vehicle: other) is 360 % of control and 379 % of control; the T/C (endpoint: mean survival time, dose: 50.0 mg/kg/injection, schedule: Q01DX001 (ip), vehicle: other) is 89 % of control.

As to `CS(=O)(=O)Nc1ccc(Nc2c3ccccc3nc3cc(N)ccc23)cc1`, the T/C is, setting by setting: under setting [1], 120 % of control; (endpoint: mean survival time, dose: 1.0 mg/kg/injection, schedule: Q01DX009 (sc), vehicle: saline) 96 % of control; under setting [2], 98 % of control; (endpoint: mean survival time, dose: 2.0 mg/kg/injection, schedule: Q01DX009 (sc), vehicle: saline) 103 % of control; (endpoint: mean survival time, dose: 4.0 mg/kg/injection, schedule: Q01DX009 (sc), vehicle: saline) 104 % of control.

Regarding `CC1CCC(NC(=O)N(CCF)N=O)CC1` (configuration not stated), the T/C runs as follows: (endpoint: mean survival time, dose: 20.0 mg/kg/injection, schedule: Q01DX001 (ip), vehicle: other) 117 % of control; (endpoint: mean survival time, dose: 44.0 mg/kg/injection, schedule: Q01DX001 (ip), vehicle: other) 212 % of control; (endpoint: mean survival time, dose: 66.0 mg/kg/injection, schedule: Q01DX001 (ip), vehicle: other) 341 % of control.

Turning to `O=NN(CCCl)C(=O)Nc1ccc2ccccc2c1`, the T/C is 115 % of control (endpoint: mean survival time, dose: 137.0 mg/kg/injection, schedule: Q01DX001 (ip), vehicle: carboxymethylcellulose (CMC)); 103 % of control (endpoint: mean survival time, dose: 200.0 mg/kg/injection, schedule: Q01DX001 (ip), vehicle: carboxymethylcellulose (CMC)); 108 % of control (endpoint: mean survival time, dose: 300.0 mg/kg/injection, schedule: Q01DX001 (ip), vehicle: carboxymethylcellulose (CMC)).

For `N[C@H](C(=O)O)[C@H]1ON=C(Cl)[C@@H]1O`, the T/C (endpoint: mean survival time, dose: 8.0 mg/kg/injection, schedule: Q01DX009 (ip), vehicle: saline) is 109 % of control; the T/C (endpoint: mean survival time, dose: 16.0 mg/kg/injection, schedule: Q01DX009 (ip), vehicle: saline) is 115 % of control; the T/C (endpoint: median survival time, dose: 256.0 mg/kg/injection, schedule: Q01DX009 (ip), vehicle: saline) was 123 % of control; the T/C (endpoint: median survival time, dose: 512.0 mg/kg/injection, schedule: Q01DX009 (ip), vehicle: saline) is 111 % of control; the T/C (endpoint: median survival time, dose: 1024.0 mg/kg/injection, schedule: Q01DX009 (ip), vehicle: saline) was 171 % of control.

For the compound `CN(N=O)C(=O)Nc1ccc(NC(=O)N(C)N=O)cc1`, the T/C was 93 % of control (endpoint: mean survival time, dose: 4.5 mg/kg/injection, schedule: Q01DX001 (ip), vehicle: carboxymethylcellulose (CMC)); 98 % of control (endpoint: mean survival time, dose: 9.0 mg/kg/injection, schedule: Q01DX001 (ip), vehicle: carboxymethylcellulose (CMC)); 98 % of control under setting [3].
